The subject of assay [1] is Baf3-FLT3 cells stimulated with FLT ligand. The assay can be described thus: 72-hour cell proliferation assay, single agents and FTI/FLT3 inhibitor combinations, Baf3-FLT3. In kind it is cell-based, murine. Conditions: with single sub-IC50 dose of FLT3 inhibitor Compound A (100 nM). Here is the method:
Dose responses for the individual compounds alone were determined for each cell line using a standard 72-hour cell proliferation assay (see FIGS. 6.1-6.8). The standard chemotherapeutic agent Cytarabine was used as a control cytotoxic agent in all experiments. […] The FLT3 inhibitors, Compounds A, B, C, D, E, F G and H, individually have good potency (sub-micromolar) for the inhibition of FLT3 driven proliferation (compared to the first line cytotoxic agent Cytarabine and Tipifarnib) in cells that depend on FLT3 for growth. Each of these chemically distinct compounds alone has potential for the treatment of disorders related to FLT3, such as FLT3 positive AML. […]
To statistically evaluate the synergy of a FLT3 inhibitor and an FTI in FLT3 dependent cell lines, dosing combinations were evaluated by the method of Chou and Talalay. See Chou T C, Talalay P. (1984) “Quantitative analysis of dose-effect relationships: the combined effects of multiple drugs or enzyme inhibitors.” Adv Enzyme Regul. […] Using this method, multiple FTI and FLT3 combinations were evaluated. […]
Cell proliferation assay for MV4-11, Baf3-ITD, Baf3-FLT3 and THP-1 cells. […] Total cell growth is quantified as the difference in luminescent counts (relative light units, RLU) of cell number at Day 0 compared to total cell number at Day 3 (72 hours of growth and/or compound treatment). […]

Assay [2] has as its target T1, isolated kinase domain of the human FLT3 receptor (a.a. 571-993) (Homo sapiens, UniProt P36888).
T1 construct: human FLT3 receptor (a.a. 571-993)
T1 sequence (P36888 571-993): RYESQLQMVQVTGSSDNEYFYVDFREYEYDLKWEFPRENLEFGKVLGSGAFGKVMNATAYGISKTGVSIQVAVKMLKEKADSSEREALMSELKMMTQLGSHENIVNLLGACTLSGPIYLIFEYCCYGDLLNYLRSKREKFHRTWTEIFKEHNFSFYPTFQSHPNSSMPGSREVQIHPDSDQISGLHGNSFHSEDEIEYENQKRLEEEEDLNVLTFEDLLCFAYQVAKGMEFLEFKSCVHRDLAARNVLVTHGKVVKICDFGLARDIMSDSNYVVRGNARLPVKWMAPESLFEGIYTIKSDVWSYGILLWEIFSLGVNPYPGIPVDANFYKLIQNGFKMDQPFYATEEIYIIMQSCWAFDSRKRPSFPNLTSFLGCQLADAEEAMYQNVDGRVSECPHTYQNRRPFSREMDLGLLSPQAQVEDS
The assay can be described thus: FLT3 fluorescence polarization kinase assay. In kind it is biochemical. The following applies: 150 uM ATP; uncertainty ±10%; read-out: Flt-3 IC50. From the text:
The FLT3 FP assay utilizes the fluorescein-labeled phosphopeptide and the anti-phosphotyrosine antibody included in the Panvera Phospho-Tyrosine Kinase Kit (Green) supplied by Invitrogen. When FLT3 phosphorylates polyGlu4Tyr, the fluorescein-labeled phosphopeptide is displaced from the anti-phosphotyrosine antibody by the phosphorylated poly Glu4Tyr, thus decreasing the FP value. […] The kinase reaction is stopped with the addition of EDTA. The fluorescein-labeled phosphopeptide and the anti-phosphotyrosine antibody are added and incubated for 30 minutes at room temperature.
Data points are an average of triplicate samples. Inhibition and IC50 data analysis was done with GraphPad Prism using a non-linear regression fit with a multiparamater, sigmoidal dose-response (variable slope) equation.
A general note: Polarisation of emitted light reports the rotation of a fluorescent probe.

Assay [3] addresses T2, wild-type FLT3 phosphorylation in Baf3 FLT3 cells (Homo sapiens, UniProt P36888).
T2 construct: host or cells: Baf3 (murine B cell lymphoma line)
T2 sequence (P36888 27-993): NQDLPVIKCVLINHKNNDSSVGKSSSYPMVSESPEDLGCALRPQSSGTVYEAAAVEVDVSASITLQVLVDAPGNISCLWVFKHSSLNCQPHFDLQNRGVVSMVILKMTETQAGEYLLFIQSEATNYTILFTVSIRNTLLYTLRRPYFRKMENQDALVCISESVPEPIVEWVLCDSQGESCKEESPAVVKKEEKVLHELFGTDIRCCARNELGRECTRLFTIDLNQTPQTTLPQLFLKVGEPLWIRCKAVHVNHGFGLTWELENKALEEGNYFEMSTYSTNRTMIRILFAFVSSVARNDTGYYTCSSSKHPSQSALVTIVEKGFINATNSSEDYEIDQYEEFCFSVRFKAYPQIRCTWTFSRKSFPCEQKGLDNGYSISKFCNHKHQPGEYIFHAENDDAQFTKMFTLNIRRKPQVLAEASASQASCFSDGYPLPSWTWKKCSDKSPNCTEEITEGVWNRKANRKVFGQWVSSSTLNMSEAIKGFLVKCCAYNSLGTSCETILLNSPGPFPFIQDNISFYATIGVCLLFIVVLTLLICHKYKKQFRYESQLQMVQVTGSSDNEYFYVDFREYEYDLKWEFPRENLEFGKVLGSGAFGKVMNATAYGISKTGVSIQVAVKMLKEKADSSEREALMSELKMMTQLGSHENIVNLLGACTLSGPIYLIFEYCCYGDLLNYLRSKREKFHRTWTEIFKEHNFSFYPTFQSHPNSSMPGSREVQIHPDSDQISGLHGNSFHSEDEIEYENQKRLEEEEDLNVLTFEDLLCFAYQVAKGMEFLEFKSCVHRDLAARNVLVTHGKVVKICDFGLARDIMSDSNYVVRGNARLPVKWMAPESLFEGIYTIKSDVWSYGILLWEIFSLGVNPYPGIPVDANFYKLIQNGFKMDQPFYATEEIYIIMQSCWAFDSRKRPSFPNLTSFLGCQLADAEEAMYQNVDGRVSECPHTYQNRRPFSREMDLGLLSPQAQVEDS
The assay can be described thus: Cell-based FLT3 receptor ELISA. Conditions: uncertainty ±20%. An excerpt: Data points are an average of triplicate samples. […] Leukemia.
In general terms: An ELISA detects its analyte on a solid surface through an enzyme-linked reagent.

A further assay relates to MV4-11 cells. Briefly: Inhibition of MV4-11 cell proliferation (CellTiterGlo). In kind it is cell-based. The following applies: Homo sapiens, 72 hours growth, uncertainty ±20%. Here is the method:
To assess the cellular potency of compounds of the present invention, FLT3 specific growth inhibition was measured in the leukemic cell line MV4-11 (ATCC Number: CRL-9591). […] MV4-11 cells cannot grow and survive without active FLT3ITD.
To measure proliferation inhibition by compounds of the present invention, the luciferase based CellTiterGlo reagent (Promega), which quantifies total cell number based on total cellular ATP concentration, was used. Cells are plated at 10,000 cells per well in 100 ul of in RPMI media containing penn/strep, 10% FBS and 1 ng/ml GM-CSF or 1 ng/ml IL-3 for MV4-11 and Baf3 cells respectively.
Compound dilutions or 0.1% DMSO (vehicle control) are added to cells and the cells are allowed to grow for 72 hours at standard cell growth conditions (37° C., 5% CO2). For activity measurements in MV4-11 cells grown in 50% plasma, cells were plated at 10,000 cells per well in a 1:1 mixture of growth media and human plasma (final volume of 100 μL). To measure total cell growth an equal volume of CellTiterGlo reagent was added to each well, according to the manufacturer's instructions, and luminescence was quantified. Total cell growth was quantified as the difference in luminescent counts (relative light units, RLU) of cell number at Day 0 compared to total cell number at Day 3 (72 hours of growth and/or compound treatment). One hundred percent inhibition of growth is defined as an RLU equivalent to the Day 0 reading. Zero percent inhibition was defined as the RLU signal for the DMSO vehicle control at Day 3 of growth.
Data points are an average of triplicate samples. […] Inhibition and IC50 data analysis was done with GraphPad Prism using a non-linear regression fit with a multiparamater, sigmoidal dose-response (variable slope) equation. MV4-11 cells express the FLT3 internal tandem duplication mutation, and thus are entirely dependent upon FLT3 activity for growth. […] In contrast, the Baf3 cell proliferation is driven by the cytokine IL-3 and thus is used as a non-specific toxicity control.
(In ATP-based viability assays light output follows the ATP content of the culture.)

Structures can show the parent of a compound that is named as a salt.

As for `Cn1cncc1[C@@](N)(c1ccc(Cl)cc1)c1ccc2c(c1)c(-c1cccc(Cl)c1)cc(=O)n2C` (single isomer, unassigned) [Tipifarnib, reference compound], in assay [1], the “increase in potency of Tipifarnib” value is listed as “more than 3 fold”.

Turning to `CN1CCN(c2ccc(NC(=O)c3ccc(C#N)o3)c(C3=CCCCC3)c2)CC1` [Compound 11, 5-Cyano-furan-2-carboxylic acid [2-cyclohex-1-enyl-4-(4-methyl-piperazin-1-yl)-phenyl]-amide], the IC50 – broadly, the concentration at which inhibition is half-maximal – in assay [2] was 0.26 µM; in assay [3], 1.3 µM.

On to `N#Cc1c[nH]c(C(=O)Nc2ccc(C3CCNCC3)cc2C2=CCCCC2)n1` [Compound 14, 4-Cyano-1H-imidazole-2-carboxylic acid (2-cyclohex-1-enyl-4-piperidin-4-yl-phenyl)-amide trifluoroacetic acid salt], for which the IC50 in assay [2] came to 0.032 µM; in assay [3], 0.77 µM.

Consider `N#Cc1c[nH]c(C(=O)Nc2ccc(C3CCN(CCN4CCOCC4)CC3)cc2C2=CCCCC2)n1` [Compound 34, 4-Cyano-1H-imidazole-2-carboxylic acid {2-cyclohex-1-enyl-4-[1-(2-morpholin-4-yl-ethyl)-piperidin-4-yl]-phenyl}-amide di-trifluoroacetic acid salt], for which half-maximal inhibition in the assay with MV4-11 cells (IC50) was put at 0.008 µM.

Regarding `N#Cc1c[nH]c(C(=O)Nc2ccc(C3CCNCC3)cc2C2=CCS(=O)(=O)CC2)n1` [Compound 36, 4-Cyano-1H-imidazole-2-carboxylic acid [2-(1,1-dioxo-1,2,3,6-tetrahydro-1λ6-thiopyran-4-yl)-4-piperidin-4-yl-phenyl]-amide trifluoroacetic acid salt], the values for the IC50 (with MV4-11 cells; in assay [2]) were 0.192 µM and 9.1 µM, respectively.

Compound `CS(=O)(=O)CCN1CCC(c2ccc(NC(=O)c3nc(C#N)c[nH]3)c(C3=CCCCC3)c2)CC1` [Compound 40, 4-Cyano-1H-imidazole-2-carboxylic acid {2-cyclohex-1-enyl-4-[1-(2-methanesulfonyl-ethyl)-piperidin-4-yl]-phenyl}-amide] came in with an IC50 with MV4-11 cells of 0.116 µM.

For the compound `C[C@@H]1CC(c2ccc(NC(=O)c3ncc(C#N)[nH]3)c(C3=CCCCC3)c2)C[C@H](C)N1` (stereo partly drawn) [Compound 51a, 5-Cyano-1H-imidazole-2-carboxylic acid [2-cyclohex-1-enyl-4-(cis-2,6-dimethyl-piperidin-4-yl)-phenyl]-amide bis trifluoroacetic acid salt], in assay [2], the half-inhibitory concentration (IC50) is 0.0023 µM.

As to `CC1(C)CC=C(c2nc(C3CCN(CCS(C)(=O)=O)CC3)ccc2NC(=O)c2nc(C#N)c[nH]2)CC1` [Compound 56, 4-Cyano-1H-imidazole-2-carboxylic acid [6-(4,4-dimethyl-cyclohex-1-enyl)-1′-(2-methanesulfonyl-ethyl)-1′,2′,3′,4′,5′,6′-hexhydro-[2,4]bipyridinyl-5-yl]-amide trifluoroacetic acid salt], in assay [2], the half-inhibitory concentration (IC50) was 0.14 µM.

Source of the values: patent US8557847B2, “Synergistic modulation of FLT3 kinase using a FLT3 inhibitor and a farnesyl transferase inhibitor” (Janssen Pharmaceutica, N.V., priority 2005, dated 2013).
